Experimental data published in the supplement of paper PMC8882468.

System: HCI-015 (organoid from a triple-negative breast cancer xenograft)
Test: CTG-3D luminescence at 96 h relative to day-0 seeding control (ratio to day 0); higher = more growth / less cytotoxicity; PDxO 3D drug screen, 96 h, CTG-3D normalised to day-0 seeding control.
Details: 12.5 pM; days in culture: 172

Row | Structure (SMILES) | CTG-3D luminescence at 96 h
1 | COc1cc2c(Oc3ccc4[nH]c(C)cc4c3F)ncnc2cc1OCCCN1CCCC1 [cediranib] | 2.29
2 | CC(C)n1nc(-c2ccc3oc(N)nc3c2)c2c(N)ncnc21 [sapanisertib] | 2.06
3 | Cc1cc(Nc2ncnc3ccc(NC4=NC(C)(C)CO4)cc23)ccc1Oc1ccn2ncnc2c1 [tucatinib] | 2.53
4 | C[C@H](NC(=O)CCC(F)(F)F)C(=O)N[C@@H]1C(=O)N(CCO)c2ncccc2-c2ccccc21 [crenigacestat] | 2.18
5 | C[C@]12CC[C@@H]3c4ccc(O)cc4C[C@@H](CCCCCCCCC[S+]([O-])CCCC(F)(F)C(F)(F)F)[C@H]3[C@@H]1CC[C@@H]2O (some centres not stated) [fulvestrant] | 2.41
6 | O=C(c1ccc(F)c(F)c1Nc1ccc(I)cc1F)N1CC(O)([C@@H]2CCCCN2)C1 [cobimetinib] | 2.36
7 | O=C(/C=C/c1cccnc1)NCCCCC1CCN(C(=O)c2ccccc2)CC1 [FK866] | 2.55
8 | CS(=O)(=O)c1ccc(C(=O)Nc2ccc(Cl)c(-c3ccccn3)c2)c(Cl)c1 [vismodegib] | 2.23
9 | C=CCn1c(=O)c2cnc(Nc3ccc(N4CCN(C)CC4)cc3)nc2n1-c1cccc(C(C)(C)O)n1 [adavosertib] | 2.15

Same assay, conditions: 12.5 pM; days in culture: 191

Row | Structure (SMILES) | CTG-3D luminescence at 96 h
10 | COc1cc2c(Oc3ccc4[nH]c(C)cc4c3F)ncnc2cc1OCCCN1CCCC1 [cediranib] | 2.09
11 | CC(C)n1nc(-c2ccc3oc(N)nc3c2)c2c(N)ncnc21 [sapanisertib] | 1.67
12 | Cc1cc(Nc2ncnc3ccc(NC4=NC(C)(C)CO4)cc23)ccc1Oc1ccn2ncnc2c1 [tucatinib] | 1.69
13 | C[C@H](NC(=O)CCC(F)(F)F)C(=O)N[C@@H]1C(=O)N(CCO)c2ncccc2-c2ccccc21 [crenigacestat] | 1.82
14 | C[C@]12CC[C@@H]3c4ccc(O)cc4C[C@@H](CCCCCCCCC[S+]([O-])CCCC(F)(F)C(F)(F)F)[C@H]3[C@@H]1CC[C@@H]2O (some centres not stated) [fulvestrant] | 1.78
15 | O=C(c1ccc(F)c(F)c1Nc1ccc(I)cc1F)N1CC(O)([C@@H]2CCCCN2)C1 [cobimetinib] | 1.86
16 | O=C(/C=C/c1cccnc1)NCCCCC1CCN(C(=O)c2ccccc2)CC1 [FK866] | 2.04
17 | CS(=O)(=O)c1ccc(C(=O)Nc2ccc(Cl)c(-c3ccccn3)c2)c(Cl)c1 [vismodegib] | 2.65
18 | C=CCn1c(=O)c2cnc(Nc3ccc(N4CCN(C)CC4)cc3)nc2n1-c1cccc(C(C)(C)O)n1 [adavosertib] | 2.26

Same assay, conditions: 12.5 pM; days in culture: 218

Row | Structure (SMILES) | CTG-3D luminescence at 96 h
19 | COc1cc2c(Oc3ccc4[nH]c(C)cc4c3F)ncnc2cc1OCCCN1CCCC1 [cediranib] | 1.26
20 | CC(C)n1nc(-c2ccc3oc(N)nc3c2)c2c(N)ncnc21 [sapanisertib] | 1.96
21 | Cc1cc(Nc2ncnc3ccc(NC4=NC(C)(C)CO4)cc23)ccc1Oc1ccn2ncnc2c1 [tucatinib] | 2.15
22 | C[C@H](NC(=O)CCC(F)(F)F)C(=O)N[C@@H]1C(=O)N(CCO)c2ncccc2-c2ccccc21 [crenigacestat] | 1.66
23 | C[C@]12CC[C@@H]3c4ccc(O)cc4C[C@@H](CCCCCCCCC[S+]([O-])CCCC(F)(F)C(F)(F)F)[C@H]3[C@@H]1CC[C@@H]2O (some centres not stated) [fulvestrant] | 2.19
24 | O=C(c1ccc(F)c(F)c1Nc1ccc(I)cc1F)N1CC(O)([C@@H]2CCCCN2)C1 [cobimetinib] | 1.8
25 | O=C(/C=C/c1cccnc1)NCCCCC1CCN(C(=O)c2ccccc2)CC1 [FK866] | 1.79
26 | CS(=O)(=O)c1ccc(C(=O)Nc2ccc(Cl)c(-c3ccccn3)c2)c(Cl)c1 [vismodegib] | 1.6
27 | C=CCn1c(=O)c2cnc(Nc3ccc(N4CCN(C)CC4)cc3)nc2n1-c1cccc(C(C)(C)O)n1 [adavosertib] | 1.97

Same assay, conditions: 0.00025 µM; days in culture: 172

Row | Structure (SMILES) | CTG-3D luminescence at 96 h
28 | COc1cc2c(Oc3ccc4[nH]c(C)cc4c3F)ncnc2cc1OCCCN1CCCC1 [cediranib] | 1.76
29 | CC(C)n1nc(-c2ccc3oc(N)nc3c2)c2c(N)ncnc21 [sapanisertib] | 1.81
30 | Cc1cc(Nc2ncnc3ccc(NC4=NC(C)(C)CO4)cc23)ccc1Oc1ccn2ncnc2c1 [tucatinib] | 1.9
31 | C[C@H](NC(=O)CCC(F)(F)F)C(=O)N[C@@H]1C(=O)N(CCO)c2ncccc2-c2ccccc21 [crenigacestat] | 1.26
32 | C[C@]12CC[C@@H]3c4ccc(O)cc4C[C@@H](CCCCCCCCC[S+]([O-])CCCC(F)(F)C(F)(F)F)[C@H]3[C@@H]1CC[C@@H]2O (some centres not stated) [fulvestrant] | 1.73
33 | O=C(c1ccc(F)c(F)c1Nc1ccc(I)cc1F)N1CC(O)([C@@H]2CCCCN2)C1 [cobimetinib] | 1.69
34 | O=C(/C=C/c1cccnc1)NCCCCC1CCN(C(=O)c2ccccc2)CC1 [FK866] | 0.705
35 | CS(=O)(=O)c1ccc(C(=O)Nc2ccc(Cl)c(-c3ccccn3)c2)c(Cl)c1 [vismodegib] | 2
36 | C=CCn1c(=O)c2cnc(Nc3ccc(N4CCN(C)CC4)cc3)nc2n1-c1cccc(C(C)(C)O)n1 [adavosertib] | 2.15

Same assay, conditions: 0.00025 µM; days in culture: 191

Row | Structure (SMILES) | CTG-3D luminescence at 96 h
37 | COc1cc2c(Oc3ccc4[nH]c(C)cc4c3F)ncnc2cc1OCCCN1CCCC1 [cediranib] | 1.61
38 | CC(C)n1nc(-c2ccc3oc(N)nc3c2)c2c(N)ncnc21 [sapanisertib] | 1.6
39 | Cc1cc(Nc2ncnc3ccc(NC4=NC(C)(C)CO4)cc23)ccc1Oc1ccn2ncnc2c1 [tucatinib] | 1.49
40 | C[C@H](NC(=O)CCC(F)(F)F)C(=O)N[C@@H]1C(=O)N(CCO)c2ncccc2-c2ccccc21 [crenigacestat] | 1.27
41 | C[C@]12CC[C@@H]3c4ccc(O)cc4C[C@@H](CCCCCCCCC[S+]([O-])CCCC(F)(F)C(F)(F)F)[C@H]3[C@@H]1CC[C@@H]2O (some centres not stated) [fulvestrant] | 1.35
42 | O=C(c1ccc(F)c(F)c1Nc1ccc(I)cc1F)N1CC(O)([C@@H]2CCCCN2)C1 [cobimetinib] | 1.15
43 | O=C(/C=C/c1cccnc1)NCCCCC1CCN(C(=O)c2ccccc2)CC1 [FK866] | 1.32
44 | CS(=O)(=O)c1ccc(C(=O)Nc2ccc(Cl)c(-c3ccccn3)c2)c(Cl)c1 [vismodegib] | 1.16
45 | C=CCn1c(=O)c2cnc(Nc3ccc(N4CCN(C)CC4)cc3)nc2n1-c1cccc(C(C)(C)O)n1 [adavosertib] | 1.49

Same assay, conditions: 0.00025 µM; days in culture: 218

Row | Structure (SMILES) | CTG-3D luminescence at 96 h
46 | COc1cc2c(Oc3ccc4[nH]c(C)cc4c3F)ncnc2cc1OCCCN1CCCC1 [cediranib] | 1.53
47 | CC(C)n1nc(-c2ccc3oc(N)nc3c2)c2c(N)ncnc21 [sapanisertib] | 1.53
48 | Cc1cc(Nc2ncnc3ccc(NC4=NC(C)(C)CO4)cc23)ccc1Oc1ccn2ncnc2c1 [tucatinib] | 1.83
49 | C[C@H](NC(=O)CCC(F)(F)F)C(=O)N[C@@H]1C(=O)N(CCO)c2ncccc2-c2ccccc21 [crenigacestat] | 1.29
50 | C[C@]12CC[C@@H]3c4ccc(O)cc4C[C@@H](CCCCCCCCC[S+]([O-])CCCC(F)(F)C(F)(F)F)[C@H]3[C@@H]1CC[C@@H]2O (some centres not stated) [fulvestrant] | 1.3
51 | O=C(c1ccc(F)c(F)c1Nc1ccc(I)cc1F)N1CC(O)([C@@H]2CCCCN2)C1 [cobimetinib] | 1.31
52 | O=C(/C=C/c1cccnc1)NCCCCC1CCN(C(=O)c2ccccc2)CC1 [FK866] | 1.55
53 | CS(=O)(=O)c1ccc(C(=O)Nc2ccc(Cl)c(-c3ccccn3)c2)c(Cl)c1 [vismodegib] | 1.48
54 | C=CCn1c(=O)c2cnc(Nc3ccc(N4CCN(C)CC4)cc3)nc2n1-c1cccc(C(C)(C)O)n1 [adavosertib] | 1.76

Same assay, conditions: 0.005 µM; days in culture: 172

Row | Structure (SMILES) | CTG-3D luminescence at 96 h
55 | COc1cc2c(Oc3ccc4[nH]c(C)cc4c3F)ncnc2cc1OCCCN1CCCC1 [cediranib] | 2.22
56 | CC(C)n1nc(-c2ccc3oc(N)nc3c2)c2c(N)ncnc21 [sapanisertib] | 1.9
57 | Cc1cc(Nc2ncnc3ccc(NC4=NC(C)(C)CO4)cc23)ccc1Oc1ccn2ncnc2c1 [tucatinib] | 2.05
58 | C[C@H](NC(=O)CCC(F)(F)F)C(=O)N[C@@H]1C(=O)N(CCO)c2ncccc2-c2ccccc21 [crenigacestat] | 1.37
59 | C[C@]12CC[C@@H]3c4ccc(O)cc4C[C@@H](CCCCCCCCC[S+]([O-])CCCC(F)(F)C(F)(F)F)[C@H]3[C@@H]1CC[C@@H]2O (some centres not stated) [fulvestrant] | 2.32
60 | O=C(c1ccc(F)c(F)c1Nc1ccc(I)cc1F)N1CC(O)([C@@H]2CCCCN2)C1 [cobimetinib] | 2.13
61 | O=C(/C=C/c1cccnc1)NCCCCC1CCN(C(=O)c2ccccc2)CC1 [FK866] | 0.752
62 | CS(=O)(=O)c1ccc(C(=O)Nc2ccc(Cl)c(-c3ccccn3)c2)c(Cl)c1 [vismodegib] | 1.97
63 | C=CCn1c(=O)c2cnc(Nc3ccc(N4CCN(C)CC4)cc3)nc2n1-c1cccc(C(C)(C)O)n1 [adavosertib] | 2.3

Same assay, conditions: 0.005 µM; days in culture: 191

Row | Structure (SMILES) | CTG-3D luminescence at 96 h
64 | COc1cc2c(Oc3ccc4[nH]c(C)cc4c3F)ncnc2cc1OCCCN1CCCC1 [cediranib] | 1.52
65 | CC(C)n1nc(-c2ccc3oc(N)nc3c2)c2c(N)ncnc21 [sapanisertib] | 1.4
66 | Cc1cc(Nc2ncnc3ccc(NC4=NC(C)(C)CO4)cc23)ccc1Oc1ccn2ncnc2c1 [tucatinib] | 1.75
67 | C[C@H](NC(=O)CCC(F)(F)F)C(=O)N[C@@H]1C(=O)N(CCO)c2ncccc2-c2ccccc21 [crenigacestat] | 0.914
68 | C[C@]12CC[C@@H]3c4ccc(O)cc4C[C@@H](CCCCCCCCC[S+]([O-])CCCC(F)(F)C(F)(F)F)[C@H]3[C@@H]1CC[C@@H]2O (some centres not stated) [fulvestrant] | 1.29
69 | O=C(c1ccc(F)c(F)c1Nc1ccc(I)cc1F)N1CC(O)([C@@H]2CCCCN2)C1 [cobimetinib] | 1.57
70 | O=C(/C=C/c1cccnc1)NCCCCC1CCN(C(=O)c2ccccc2)CC1 [FK866] | 0.805
71 | CS(=O)(=O)c1ccc(C(=O)Nc2ccc(Cl)c(-c3ccccn3)c2)c(Cl)c1 [vismodegib] | 1.77
72 | C=CCn1c(=O)c2cnc(Nc3ccc(N4CCN(C)CC4)cc3)nc2n1-c1cccc(C(C)(C)O)n1 [adavosertib] | 1.67
